Results as given in patent publication US5384417A, “Heptitols” (priority 1994, dated 1995).

What follows are compounds tested against T1, Lysosomal α-Mannosidase (Homo sapiens, UniProt O00754) (assay: inhibition of human liver lysosomal α-mannosidase). Settings: 1 mM inhibitor; read-out: % Inhibition of Glycosidase Activity, α-Mannosidase Lysosomal.
T1 construct: Human liver glycosidases were assayed; from tissue; host or cells: human liver
T1 sequence (O00754 50-1011): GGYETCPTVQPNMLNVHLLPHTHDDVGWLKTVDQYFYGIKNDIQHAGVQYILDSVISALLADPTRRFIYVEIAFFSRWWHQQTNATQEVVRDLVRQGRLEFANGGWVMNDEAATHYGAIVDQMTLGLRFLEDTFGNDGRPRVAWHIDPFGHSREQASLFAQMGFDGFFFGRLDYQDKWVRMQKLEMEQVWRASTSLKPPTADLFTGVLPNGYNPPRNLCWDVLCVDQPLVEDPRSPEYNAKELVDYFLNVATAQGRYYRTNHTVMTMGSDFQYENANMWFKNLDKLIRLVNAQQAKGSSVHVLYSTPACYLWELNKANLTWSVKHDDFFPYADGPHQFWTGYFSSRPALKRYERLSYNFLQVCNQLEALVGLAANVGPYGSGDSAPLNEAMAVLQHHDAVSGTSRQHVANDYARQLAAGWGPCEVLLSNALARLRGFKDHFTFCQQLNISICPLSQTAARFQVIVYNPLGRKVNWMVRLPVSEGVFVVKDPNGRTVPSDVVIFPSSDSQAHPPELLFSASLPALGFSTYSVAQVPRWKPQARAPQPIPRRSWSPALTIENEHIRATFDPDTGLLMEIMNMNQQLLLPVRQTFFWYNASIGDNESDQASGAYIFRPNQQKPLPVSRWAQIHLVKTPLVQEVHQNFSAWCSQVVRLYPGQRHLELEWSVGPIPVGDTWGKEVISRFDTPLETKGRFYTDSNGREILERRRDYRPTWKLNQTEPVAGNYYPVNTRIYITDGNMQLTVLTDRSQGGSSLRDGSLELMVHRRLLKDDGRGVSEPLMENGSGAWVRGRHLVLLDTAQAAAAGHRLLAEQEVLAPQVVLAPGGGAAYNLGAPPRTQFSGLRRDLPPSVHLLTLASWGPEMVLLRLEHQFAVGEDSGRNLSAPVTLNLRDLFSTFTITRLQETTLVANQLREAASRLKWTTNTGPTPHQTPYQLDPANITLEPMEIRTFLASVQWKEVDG
Assay type: biochemical
Method: (§1) Human liver glycosidases were assayed in the absence and presence [1 mM] of each of the potential inhibitors, using the appropriate buffered 4-methylumbelliferyl glycosides as substrates, as previously described.^17 See Table I, below.
In the case of OC[C@@H](O)[C@H]1NC[C@@H](O)[C@H]1O [DIM (3)], the inhibition at 1000 µM is reported as 97%.
Compound OC[C@H]1NC[C@@H](O)[C@@H](O)[C@@H]1O [DMJ (1), deoxymannojirimycin] has an inhibition at 1000 µM of 58%.
NC[C@H]1O[C@H]([C@H](O)CO)[C@H](O)[C@@H]1O [Manhepamine (5), 1-amino-2,5-anhydro-1-deoxy-D-glycero-D-talo-heptitol] gave an inhibition at 1000 µM of 2%.
With OC[C@@H](O)[C@H]1N[C@H](CO)[C@@H](O)[C@H]1O [αHomoDIM (4), 2,5-dideoxy-2,5-imino-D-glycero-D-talo-heptitol] the inhibition at 1000 µM was 71%.
With OC[C@H]1N[C@H](CO)[C@@H](O)C(O)[C@@H]1O (stereo partly drawn) [αHomoDMJ (2)] the inhibition at 1000 µM was 49%.

Same assay, conditions: compared with DIM (3)
For OC[C@@H](O)[C@H]1N[C@H](CO)[C@@H](O)[C@H]1O [αHomoDIM (4), 2,5-dideoxy-2,5-imino-D-glycero-D-talo-heptitol], the “inhibition of lysosomal α-mannosidase (in words)” value was “decreases the inhibition of the lysosomal and neutral enzymes”.

What follows are compounds tested on α-Glucosidase (assay: inhibition of human liver α-glucosidase). Settings: 1 mM inhibitor.
Assay type: biochemical
Method: as §1
For OC[C@@H](O)[C@H]1NC[C@@H](O)[C@H]1O [DIM (3)], the “% Inhibition of Glycosidase Activity, α-Glucosidase” value (from here on “% Inhibition”) was 0%.
With OC[C@H]1NC[C@@H](O)[C@@H](O)[C@@H]1O [DMJ (1), deoxymannojirimycin] the “% Inhibition” value was 21%.
With NC[C@H]1O[C@H]([C@H](O)CO)[C@H](O)[C@@H]1O [Manhepamine (5), 1-amino-2,5-anhydro-1-deoxy-D-glycero-D-talo-heptitol] the “% Inhibition” value was 0%.
With OC[C@@H](O)[C@H]1N[C@H](CO)[C@@H](O)[C@H]1O [αHomoDIM (4), 2,5-dideoxy-2,5-imino-D-glycero-D-talo-heptitol] the “% Inhibition” value was 12%.
For OC[C@H]1N[C@H](CO)[C@@H](O)C(O)[C@@H]1O (stereo partly drawn) [αHomoDMJ (2)], the “% Inhibition” value was 4%.

These compounds were tested against T2, Golgi α-Mannosidase (Homo sapiens, UniProt Q16706) (assay: inhibition of human liver Golgi α-mannosidase). Settings: 1 mM inhibitor; read-out: % Inhibition of Glycosidase Activity, α-Mannosidase Golgi.
T2 construct: Human liver glycosidases were assayed; from tissue; host or cells: human liver
T2 sequence (Q16706 1-1144): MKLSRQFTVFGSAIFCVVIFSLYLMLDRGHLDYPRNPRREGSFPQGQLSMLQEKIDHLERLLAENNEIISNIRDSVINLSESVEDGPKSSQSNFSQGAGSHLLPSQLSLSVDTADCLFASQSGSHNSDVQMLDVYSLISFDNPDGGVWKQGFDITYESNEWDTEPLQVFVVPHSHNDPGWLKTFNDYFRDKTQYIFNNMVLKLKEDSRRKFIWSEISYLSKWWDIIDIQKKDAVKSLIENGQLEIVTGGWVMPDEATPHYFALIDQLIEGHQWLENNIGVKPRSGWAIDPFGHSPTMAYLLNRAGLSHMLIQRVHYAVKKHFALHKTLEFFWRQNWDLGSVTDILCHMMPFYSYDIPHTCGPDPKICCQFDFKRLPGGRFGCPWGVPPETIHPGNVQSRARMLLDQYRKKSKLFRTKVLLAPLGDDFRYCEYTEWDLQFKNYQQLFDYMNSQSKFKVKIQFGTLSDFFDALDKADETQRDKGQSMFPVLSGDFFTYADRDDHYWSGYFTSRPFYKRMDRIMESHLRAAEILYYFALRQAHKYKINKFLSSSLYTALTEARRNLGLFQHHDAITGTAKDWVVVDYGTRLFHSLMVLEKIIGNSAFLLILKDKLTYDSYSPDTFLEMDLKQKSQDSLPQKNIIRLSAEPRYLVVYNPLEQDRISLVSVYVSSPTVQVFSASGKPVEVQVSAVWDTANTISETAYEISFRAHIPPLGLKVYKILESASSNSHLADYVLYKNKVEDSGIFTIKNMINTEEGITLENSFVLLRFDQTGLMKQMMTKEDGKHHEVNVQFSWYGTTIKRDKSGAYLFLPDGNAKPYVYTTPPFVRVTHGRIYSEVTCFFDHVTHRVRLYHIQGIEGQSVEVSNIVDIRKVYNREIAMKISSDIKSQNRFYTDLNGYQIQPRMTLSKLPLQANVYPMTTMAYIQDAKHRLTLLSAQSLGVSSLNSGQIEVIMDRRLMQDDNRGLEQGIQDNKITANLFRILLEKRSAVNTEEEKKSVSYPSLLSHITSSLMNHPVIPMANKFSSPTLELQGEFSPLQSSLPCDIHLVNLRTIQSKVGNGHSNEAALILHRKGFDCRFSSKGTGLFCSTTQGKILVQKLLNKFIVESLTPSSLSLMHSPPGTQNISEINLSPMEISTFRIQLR
Assay type: biochemical
Method: as §1
OC[C@@H](O)[C@H]1NC[C@@H](O)[C@H]1O [DIM (3)] showed an inhibition at 1000 µM of 96%.
With OC[C@H]1NC[C@@H](O)[C@@H](O)[C@@H]1O [DMJ (1), deoxymannojirimycin] the inhibition at 1000 µM was 45%.
Work on OC[C@@H](O)[C@H]1N[C@H](CO)[C@@H](O)[C@H]1O [αHomoDIM (4), 2,5-dideoxy-2,5-imino-D-glycero-D-talo-heptitol] yielded an inhibition at 1000 µM of 92%.
In the case of OC[C@H]1N[C@H](CO)[C@@H](O)C(O)[C@@H]1O (stereo partly drawn) [αHomoDMJ (2)], the inhibition at 1000 µM is reported as 56%.
